In brackets after ≈: the same amount, converted by molar mass. Several values for one entry are separate records, joined by “and”; a condition that tells them apart may be missing. Equal values may be shown once.
Tests used:
[1] = Stability of Compound 1 in different excipients, 3 months; type: physicochemical; details: for HPLC (% Remaining): initial purity 99.19%
Method: The stability of Compound 1 in different excipients was assessed.

[2] = Solubility of Compound 1 in aqueous buffers; type: physicochemical
Excerpt: 3-((3-(4-(2-(isobutylsulfonyl)phenoxy)-3-(trifluoromethyl)phenyl)-1,2,4-oxadiazol-5-yl)methyl)-5,5-dimethyl-1-(2-morpholinoethyl)imidazolidine-2,4-dione (“Compound 1”) is an LXR agonist having biological activity that makes the compound useful for treating ocular diseases such as MGD (see, e.g., Example 3). However, its physical properties make formulating Compound 1 for therapeutic use (e.g., in human subjects) difficult. Compound 1 is poorly water soluble, making it difficult to formulate compositions of Compound 1 with desired concentrations of Compound 1 for therapeutic use. […] Moreover, Compound 1 has a melting temperature of only 118° C., which makes heat sterilization of Compound 1 difficult. In spite of these challenges, formulations of Compound 1 which can be used, for example, in the treatment of ocular diseases and disorders such as dry eye disease and MGD, have been developed.

rat meibum = assay: In vivo measurement of lowered meibum melting temperature; design: species or system Sprague Dawley rats; details: rats
Method: The lowering of rat meibum melting temperature by Compound 1 was measured in naive Sprague Dawley rats. The test animals were administered either vehicle, or a suspension of 1% of Compound 1, as eye drops twice a day for fourteen days. The rat meibum was collected after administration of the compounds and analyzed by differential scanning calorimetry to measure the melting point. The lowering of meibum melting point in rats administered Compound 1 was compared to the vehicle.
Melting properties of meibum were obtained using differential scanning calorimetry thermograms, recorded on a TA Discovery Q5000 (ThermoAnalytical). Samples were sealed in standard 40 μl aluminum pans and subjected to a heat-cool-heat cycle with melting temperatures being recorded on the second heating ramp. The samples were first heated to 150° C. at 30K/min then cooled −30° C. at 30K/min. Next, the sample was heated to 75° C. with an underlying heating rate of 2K/min, a period of modulation of 60 seconds and a temperature amplitude of modulation of 1° C. Dry N2 gas, at a flow rate of 50 mL/min was used to purge the DSC equipment during the measurement. Onset of melting and peak temperatures were recorded with peak temperature quoted as the melting point.
Results from the assay are shown Table 3 and in FIG. 4. Results were analyzed using an unpaired t test with Welch's correction.

[3] = Wet ball milling: particle size and soluble fraction; type: physicochemical; details: aqueous with cosolvent or surfactant or cyclodextrin, thermodynamic from solid
Method: The effect of wet ball milling on Compound 1 particles size and solubility in Kolliphor® EL, Kolliphor® RH40, and tyloxopol s was assessed. […] Kolliphor® RH 40 appeared to be best wetting agent, with Kolliphor® EL also performing well.

[4] = Stability of Compound 1 on sterilization (steam, gamma irradiation); type: physicochemical
Method: The stability of Compound 1 when sterilized by steam (autoclaving) was assessed. […] Gamma irradiation was then assessed as an alternative sterilization technique. Samples of Compound 1 were irradiated with 10-20 kGy or 20-30 kGy of gamma irradiation.

[5] = Solubility of Compound 1 in different excipients; type: physicochemical
Method: The solubility of Compound 1 in different excipients was assessed.

[6] = 0.5% Kolliphor ® EL/0.5% Carbopol ® 974P, 5° C.
[7] = 0.5% Kolliphor ® EL/0.5% Carbopol ® 974P, 25° C.
[8] = 0.5% Kolliphor ® EL/0.5% Carbopol ® 974P, 40° C.
[9] = 0.5% Kolliphor ® EL/0.5% HEC, 5° C.
[10] = 0.5% Kolliphor ® EL/0.5% HEC, 25° C.
[11] = 0.5% Kolliphor ® EL/0.5% HEC, 40° C.
[12] = 0.5% Kolliphor ® RH40/0.5% Carbopol ® 974P, 5° C.
[13] = 0.5% Kolliphor ® RH40/0.5% Carbopol ® 974P, 25° C.
[14] = 0.5% Kolliphor ® RH40/0.5% Carbopol ® 974P, 40° C.
[15] = 0.5% Kolliphor ® RH40/0.5% HEC, 5° C.
[16] = 0.5% Kolliphor ® RH40/0.5% HEC, 25° C.
[17] = 0.5% Kolliphor ® RH40/0.5% HEC, 40° C.

XRPD (2-Theta) ([1]; 0.5% Carbopol ® 974P, 5° C.): Form | HPLC (% Remaining) ([1]; 0.5% Carbopol ® 974P, 5° C.): 99.19% | XRPD (2-Theta) ([1]; 0.5% Carbopol ® 974P, 25° C.): Form | HPLC (% Remaining) ([1]; 0.5% Carbopol ® 974P, 25° C.): 99.16% | XRPD (2-Theta) ([1]; 0.5% Carbopol ® 974P, 40° C.): Form | HPLC (% Remaining) ([1]; 0.5% Carbopol ® 974P, 40° C.): 99.14% | XRPD (2-Theta) ([1]; 0.5% HEC, 5° C.): Form | HPLC (% Remaining) ([1]; 0.5% HEC, 5° C.): 99.18% | XRPD (2-Theta) ([1]; 0.5% HEC, 25° C.): Form | HPLC (% Remaining) ([1]; 0.5% HEC, 25° C.): 99.20% | XRPD (2-Theta) ([1]; 0.5% HEC, 40° C.): Form | HPLC (% Remaining) ([1]; 0.5% HEC, 40° C.): 99.17% | XRPD (2-Theta) ([1]; 0.5% Kolliphor ® EL, 5° C.): Form | HPLC (% Remaining) ([1]; 0.5% Kolliphor ® EL, 5° C.): 99.18% | XRPD (2-Theta) ([1]; 0.5% Kolliphor ® EL, 25° C.): Form | HPLC (% Remaining) ([1]; 0.5% Kolliphor ® EL, 25° C.): 99.18% | XRPD (2-Theta) ([1]; 0.5% Kolliphor ® EL, 40° C.): Form | HPLC (% Remaining) ([1]; 0.5% Kolliphor ® EL, 40° C.): 99.00% | XRPD (2-Theta) [1, 6]: Form | HPLC (% Remaining) [1, 6]: 99.18% | XRPD (2-Theta) [1, 7]: Form | HPLC (% Remaining) [1, 7]: 99.02% | XRPD (2-Theta) [1, 8]: Form | HPLC (% Remaining) [1, 8]: 97.89% | XRPD (2-Theta) [1, 9]: Form | HPLC (% Remaining) [1, 9]: 99.19% | XRPD (2-Theta) [1, 10]: Form | HPLC (% Remaining) [1, 10]: 99.02% | XRPD (2-Theta) [1, 11]: Form | HPLC (% Remaining) [1, 11]: 98.94% | XRPD (2-Theta) ([1]; 0.5% Kolliphor ® RH40, 5° C.): Form | HPLC (% Remaining) ([1]; 0.5% Kolliphor ® RH40, 5° C.): 99.18% | XRPD (2-Theta) ([1]; 0.5% Kolliphor ® RH40, 25° C.): Form | HPLC (% Remaining) ([1]; 0.5% Kolliphor ® RH40, 25° C.): 99.18% | XRPD (2-Theta) ([1]; 0.5% Kolliphor ® RH40, 40° C.): Form | HPLC (% Remaining) ([1]; 0.5% Kolliphor ® RH40, 40° C.): 99.17% | XRPD (2-Theta) [1, 12]: Form | HPLC (% Remaining) [1, 12]: 99.18% | XRPD (2-Theta) [1, 13]: Form | HPLC (% Remaining) [1, 13]: 99.17% | XRPD (2-Theta) [1, 14]: Form | HPLC (% Remaining) [1, 14]: 98.87% | XRPD (2-Theta) [1, 15]: Form | HPLC (% Remaining) [1, 15]: 99.19% | XRPD (2-Theta) [1, 16]: Form | HPLC (% Remaining) [1, 16]: 99.18% | XRPD (2-Theta) [1, 17]: Form | HPLC (% Remaining) [1, 17]: 99.18% | solubility ([2]; 10 mM acetate buffer, aqueous buffer, 10 mM acetate, pH 4, read-out: solubility): 25 µg/mL (≈ 36.8 µM) | solubility ([2]; 10 mM acetate buffer, aqueous buffer, 10 mM acetate, pH 5, read-out: solubility): 1 µg/mL (≈ 1.47 µM) | solubility ([2]; 10 mM phosphate buffer at pH 7): limit of quantification | solubility at 24 h ([3]; 0.25% Tyloxapol @ 24 hr, 3 mm beads): 15 µg/mL (≈ 22.1 µM) | solubility at 24 h ([3]; 0.5% Tyloxapol @ 24 hr, 3 mm beads): 76 µg/mL (≈ 112 µM) | solubility at 24 h ([3]; 1% Kolliphor ® EL @ 24 hr, 3 mm beads): 270 µg/mL (≈ 397 µM) | solubility at 24 h ([3]; 1% Kolliphor ® RH-40 @ 24 hr, 3 mm beads): 344 µg/mL (≈ 506 µM) | solubility at 24 h ([3]; 2% Kolliphor ® EL @ 24 hr, 3 mm beads): 528 µg/mL (≈ 777 µM) | solubility at 24 h ([3]; 2% Kolliphor ® RH40, @ 24 hr, 1 mm beads): 650 µg/mL (≈ 956 µM) | solubility at 24 h ([3]; 2% Kolliphor ® RH-40 @ 24 hr, 3 mm beads): 669 µg/mL (≈ 984 µM) | solubility at 24 h ([3]; 4% Kolliphor ® RH40 @ 24 hr, 1 mm beads): 1200 µg/mL (≈ 1760 µM) | HPLC Assay (% Remaining) Average ([4]; 10-20 kGy, samples 7-9): 98.23 ± 0.01% | HPLC Assay (% Remaining) Average ([4]; 20-30 kGy, samples 10-12): 98.14 ± 0.03% | degradation of Compound 1 by HPLC ([4]; gamma irradiated, 10-20 kGy or 20-30 kGy): less than 0.5% | Appearance ([4]; gamma irradiation 10-20 kGy): White powder | HPLC Assay (% Remaining) ([4]; gamma irradiation 10-20 kGy): 98.23% and 98.24% and 98.22% | XRPD (2-Theta) ([4]; gamma irradiation 10-20 kGy): Form A | Appearance ([4]; gamma irradiation 20-30 kGy): White powder | HPLC Assay (% Remaining) ([4]; gamma irradiation 20-30 kGy): 98.17% and 98.13% and 98.11% | XRPD (2-Theta) ([4]; gamma irradiation 20-30 kGy): Form A | Appearance ([4]; non-irradiated control): White powder | XRPD (2-Theta) ([4]; non-irradiated control): Form A | HPLC Assay (% Remaining) Average ([4]; non-irradiated control, samples 1-6): 98.48 ± 0.03% | degradation on steam sterilization ([4]; steam (autoclaving), data not shown): Significant degradation | Physical form ([5]; 0.5% Tween ® 80 pH 7): No change, Form A | Physical form ([5]; 0.5% Tyloxapol pH 7): No change, Form A | Physical form ([5]; 5% HP-β-CD pH 5): No change, Form A | Physical form ([5]; 5% HP-β-CD pH 6): No change, Form A | Physical form ([5]; 5% HP-β-CD pH 7): No change, Form A | Physical form ([5]; 5% HP-γ-CD pH 7): No change, Form A | Physical form ([5]; 5% Kolliphor ® EL pH 5): No change, Form A | Physical form ([5]; 5% Kolliphor ® EL pH 6): No change, Form A | Physical form ([5]; 5% Kolliphor ® EL pH 7): No change, Form A | Physical form ([5]; 5% PEG400 pH 7): No change, Form A | Physical form ([5]; 5% PVP pH 7): No change, Form A | Compound 1 solubility ([5]; 5% Polyvinylpyrrolidone (PVP) pH 7, measured pH 6.97): <LOQ | Physical form ([5]; 10% transcutol pH 7): No change, Form A | Compound 1 solubility ([5]; 10% transcutol pH 7, measured pH 6.99): <LOQ | solubility ([5]; aqueous with cosolvent or surfactant or cyclodextrin, thermodynamic from solid, 0.5% Tween ® 80 pH 7, measured pH 7.1): 78 µg/mL (≈ 115 µM) | solubility ([5]; aqueous with cosolvent or surfactant or cyclodextrin, thermodynamic from solid, 0.5% Tyloxapol pH 7): 34 µg/mL (≈ 50 µM) | solubility ([5]; aqueous with cosolvent or surfactant or cyclodextrin, thermodynamic from solid, 5% HP-β-CD pH 5, measured pH 5.28): 180 µg/mL (≈ 265 µM) | solubility ([5]; aqueous with cosolvent or surfactant or cyclodextrin, thermodynamic from solid, 5% HP-β-CD pH 6, measured pH 6.13): 70 µg/mL (≈ 103 µM) | solubility ([5]; aqueous with cosolvent or surfactant or cyclodextrin, thermodynamic from solid, 5% HP-β-CD pH 7, measured pH 7.03): 50 µg/mL (≈ 73.6 µM) | solubility ([5]; aqueous with cosolvent or surfactant or cyclodextrin, thermodynamic from solid, 5% HP-γ-CD pH 7, measured pH 6.9): 225 µg/mL (≈ 331 µM) | solubility ([5]; aqueous with cosolvent or surfactant or cyclodextrin, 5% Kolliphor ® EL pH 5, measured pH 5.34): 1010 µg/mL (≈ 1490 µM) | solubility ([5]; aqueous with cosolvent or surfactant or cyclodextrin, 5% Kolliphor ® EL pH 6, measured pH 6.16): 740 µg/mL (≈ 1090 µM) | solubility ([5]; aqueous with cosolvent or surfactant or cyclodextrin, 5% Kolliphor ® EL pH 7, measured pH 7.01): 690 µg/mL (≈ 1020 µM) | solubility ([5]; aqueous with cosolvent or surfactant or cyclodextrin, 5% Kolliphor ® RH40, measured pH 6.91): 443 µg/mL (≈ 652 µM) | solubility ([5]; pH 7.1, aqueous with cosolvent or surfactant or cyclodextrin, 5% PEG400 pH 7, measured pH 7.10): 3 µg/mL (≈ 4.41 µM)
SMILES: CC(C)CS(=O)(=O)c1ccccc1Oc1ccc(-c2noc(CN3C(=O)N(CCN4CCOCC4)C(C)(C)C3=O)n2)cc1C(F)(F)F [Compound 1, 3-((3-(4-(2-(isobutylsulfonyl)phenoxy)-3-(trifluoromethyl)phenyl)-1,2,4-oxadiazol-5-yl)methyl)-5,5-dimethyl-1-(2-morpholinoethyl)imidazolidine-2,4-dione]
Mean ± SEM meibum melting temperature (rat meibum; 1% suspension eye drops twice a day for fourteen days, DSC peak temperature, in °C): 28.08 ± 0.2945 | Change of Tm (rat meibum; versus vehicle, 1% suspension twice a day, fourteen days, P value <0.0001): −2.181 ± 0.3731 | HPLC Assay (% Remaining) ([4]; non-irradiated control): 98.51% and 98.48% and 98.44% and 98.46% and 98.49% and 98.50%
